Source: ChEMBL document CHEMBL4602659, “β,β-Dimethylacrylshikonin Induces Apoptosis in Melanoma Cell Lines by NOXA Upregulation” (J Nat Prod, 2020)
Active and inactive are the calls of the source. The calls are words filed in the database; no cut-off is given here.

Experiments:
WM164 [1] = assay: Cytotoxicity against human WM164 cells harboring BRAF V600E mutant assessed as reduction in cell viability after 72 hrs by EZ4U reagent based spectrophotometric method; assay type: functional; settings: WM164, 72 h
WM793 [2] = assay: Induction of apoptosis in human WM793 cells assessed as early apoptotic cells at IC50 concentration after 24 hrs by Annexin V/SYTOX Green based flow cytometric analysis (reference value: 2.64%); assay type: functional
WM164 [3] = assay: Induction of apoptosis in human WM164 cells assessed as viable cells at IC50 concentration after 6 hrs by Annexin V/SYTOX Green based flow cytometric analysis (reference value: 94.77%); assay type: functional
MUGMel2 [4] = assay: Induction of apoptosis in human MUGMel2 cells assessed as up regulation of NOXA at IC50 concentration after 6 to 24 hrs by RT-qPCR analysis relative to control; assay type: functional
MUGMel1 [5] = assay: Cytotoxicity against human MUGMel1 cells assessed as reduction in cell viability after 72 hrs by EZ4U reagent based spectrophotometric method; assay type: functional; settings: MUGMel1, 72 h
MUGMel1 [6] = assay: Induction of apoptosis in human MUGMel1 cells assessed as necrotic cells at IC50 concentration after 24 hrs by Annexin V/SYTOX Green based flow cytometric analysis (reference value: 0.42%); assay type: functional
WM793 [7] = assay: Induction of apoptosis in human WM793 cells assessed as effect on PUMA protein expression at IC50 concentration after 24 hrs by Western blot analysis; assay type: functional, cell-based
WM164 [8] = assay: Induction of apoptosis in human WM164 cells assessed as necrotic cells at IC50 concentration after 24 hrs by Annexin V/SYTOX Green based flow cytometric analysis (reference value: 0.85%); assay type: functional
MUGMel2 [9] = assay: Cytotoxicity against human MUGMel2 cells harboring NRAS pQ61K mutant assessed as reduction in cell viability after 24 hrs by EZ4U reagent based spectrophotometric method; assay type: functional; settings: MUGMel2, 24 h
MUGMel2 [10] = assay: Induction of apoptosis in human MUGMel2 cells assessed as effect on BAX mRNA expression at IC50 concentration after 6 to 24 hrs by RT-qPCR analysis; assay type: functional, cell-based
SBcl2 [11] = assay: Induction of apoptosis in human SBcl2 cells assessed as effect on BAD protein expression at IC50 concentration after 24 hrs by Western blot analysis; assay type: functional, cell-based
[12] = Toxicity in NU(NCr)-Foxn1 mouse xenografted with WM164 assessed as weight loss at 1 to 4 ug/g administered for three consecutive days with 1 day interval for four cycle; settings: in vivo
SBcl2 [13] = assay: Induction of apoptosis in human SBcl2 cells assessed as necrotic cells at IC50 concentration after 6 hrs by Annexin V/SYTOX Green based flow cytometric analysis (reference value: 0.17%); assay type: functional
WM164 [14] = assay: Antitumour activity against human WM164 cells xenografted in NU(NCr)-Foxn1 mouse assessed as increase in fibrosis at 1 to 4 ug/g administered for three consecutive days with 1 day interval for four cycle by hematoxylin and eosin staining based microscopic analysis; assay type: functional, cell-based
WM164 [15] = assay: Induction of apoptosis in human WM164 cells assessed as late apoptotic cells at IC50 concentration after 24 hrs by Annexin V/SYTOX Green based flow cytometric analysis (reference value: 1.81%); assay type: functional
SBcl2 [16] = assay: Cytotoxicity against human SBcl2 cells harboring NRAS Q61I mutant assessed as reduction in cell viability after 24 hrs by EZ4U reagent based spectrophotometric method; assay type: functional; settings: SBcl2, 24 h
MUGMel1 [17] = assay: Induction of apoptosis in human MUGMel1 cells assessed as up regulation of PUMA at IC50 concentration after 6 to 24 hrs by RT-qPCR analysis; assay type: functional, cell-based

Structure (SMILES): CC(C)=CC[C@@H](OC(=O)C=C(C)C)C1=CC(=O)c2c(O)ccc(O)c2C1=O [DIMETHYLACRYLSHIKONIN]
- IC50 (WM164 [1]): 2.4 µM
- Activity (WM793 [2]): 13.71%
- Activity (WM164 [3]): 88.63%
- fold change (FC) (MUGMel2 [4]): 6
- IC50 (MUGMel1 [5]): 1 µM
- Activity (MUGMel1 [6]): 0.15%
- Activity (WM793 [7]): inactive
- Activity (WM164 [8]): 0.52%
- IC50 (MUGMel2 [9]): 5.1 µM
- Activity (MUGMel2 [10]): inactive
- Activity (SBcl2 [11]): inactive
- Activity [12]: Non-Toxic
- Activity (SBcl2 [13]): 0.06%
- Activity (WM164 [14]): Active
- Activity (WM164 [15]): 11.6%
- IC50 (SBcl2 [16]): 1.9 µM
- Activity (MUGMel1 [17]): Active
